Values after ≈ are worked out from the molar mass of the structure shown. Like-named read-outs stand apart in the source and are kept apart here.
How the values were obtained:
[1] = cited from earlier work
[2] = cited from earlier work; remark: listed apart in the source
[3] = format: physicochemical; details: lipoxidase treatment at 37° C., hexane:ethyl ether extraction, HPLC
[4] = cited from earlier work; remark: listed apart in the source

| Compound | Stability ([1]; light and oxygen) | Stability ([1]; stored at −20° C. under a nitrogen atmosphere) | Solubility ([2]; Ethyl acetate) | Solubility ([2]; Methyl tert butyl ether) | Solubility in nonpolar and polar solvents ([2]; nonpolar and polar solvents) | Solubility in water ([2]; water) | initial lutein recovered after enzyme treatment [3] | Lipid and water solubility [4] |
| --- | --- | --- | --- | --- | --- | --- | --- | --- |
| CC1=C[C@H](O)CC(C)(C)[C@H]1/C=C/C(C)=C/C=C/C(C)=C/C=C/C=C(C)/C=C/C=C(C)/C=C/C1=C(C)C[C@@H](O)CC1(C)C [Lutein, 3,3′-dihydroxy-alpha-carotene] | Unstable to light and oxygen; | Stable if stored at −20 °C under a nitrogen | 800 µg/mL (≈ 1410 µM) | 2000 µg/mL (≈ 3520 µM) | soluble in both nonpolar and polar solvents | Insoluble | Approximately 88% |  |
| aflatoxin B1 [AFB1] |  |  |  |  |  |  |  | both lipid and water soluble |

— patent publication US7671242B2 (priority 2005, dated 2010)
